Measured values published in patent US12049450B2, “Pyridyloxy-carboxylate derivative and preparation method therefor, herbicidal composition, and use” (Qingdao Kingagroot Chemical Compound Co., Ltd., priority 2018, dated 2024).

Experiments:
Assay in all cases: Post-emergence test experiment (greenhouse pot, spray at 2-3 leaf stage)
Type in all cases: in vivo
Conditions in all cases: 1000 g/ha; post-emergence spray at 2-3 leaf stage; assessed after 3 weeks; fresh weight inhibition rate
Abutilon theophrasti = tested on: Abutilon theophrasti
Text: (§1) The activity level standard of harmful plants destruction (i. e. growth inhibition rate) is as follows: • Level 5: the growth inhibition rate is greater than 85%; • Level 4: the growth inhibition rate is equal to or greater than 60% and less than 85%; • Level 3: the growth inhibition rate is equal to or greater than 40% and less than 60%; • Level 2: the growth inhibition rate is equal to or greater than 20% and less than 40%; • Level 1: the growth inhibition rate is equal to or greater than 5% and less than 20%; • Level 0: the growth inhibition rate is less than 5%;
(§2) The above described growth inhibition rate is fresh weight inhibition rate.
(§3) Post-emergence test experiment: Monocotyledonous and dicotyledonous weed seeds and main crop seeds (i. e. wheat, corn, rice, soybean, cotton, oilseed, millet and sorghum.) were put into a plastic pot loaded with soil. Then covered with 0.5-2 cm soil, the seeds were allowed to grow in good greenhouse environment. The test plants were treated at 2-3 leaf stage 2 weeks after sowing. The test compounds of the invention were dissolved with acetone respectively, then added with tween-80, and using 1.5 liters per hectare of an emulsible concentrate of methyl oleate as a synergist, and diluted by certain amount of water to certain concentration. The solution was sprayed to the plants with a sprayer. Then the plants were cultured for 3 weeks in the greenhouse, and the experiment result of weed controlling effect after 3 weeks was listed in tables 3-4.

Monochoria vaginalis = tested on: Monochoria vaginalis
Text: as §1, §2, §3

Galium spurium = tested on: Galium spurium
Text: as §1, §2, §3

Row | SMILES | Activity level (growth inhibition rate) Abutilon theophrasti (Abutilon theophrasti) | Activity level (growth inhibition rate) Monochoria Vaginalis (Monochoria vaginalis) | Activity level (growth inhibition rate) Galium spurium (Galium spurium)
1 | CCC(Oc1nc(F)c(Cl)c(N)c1Cl)C(=O)OCc1ccccc1 (stereo not drawn) [Compound 25] | 5 (Level 5: the growth inhibition rate is greater than 85%) | 5 (Level 5: the growth inhibition rate is greater than 85%) | 5 (Level 5: the growth inhibition rate is greater than 85%)
2 | CCCC(Oc1nc(F)c(Cl)c(N)c1Cl)C(=O)SCc1ccccc1 (stereo not drawn) [Compound 26] | 5 (Level 5: the growth inhibition rate is greater than 85%) | 5 (Level 5: the growth inhibition rate is greater than 85%) | 5 (Level 5: the growth inhibition rate is greater than 85%)
3 | Nc1c(Cl)c(F)nc(OC(C(=O)OCc2ccccc2)C2CC2)c1Cl (stereo not drawn) [Compound 28] | 5 (Level 5: the growth inhibition rate is greater than 85%) | 5 (Level 5: the growth inhibition rate is greater than 85%) | 5 (Level 5: the growth inhibition rate is greater than 85%)
4 | COCC(Oc1nc(F)c(Cl)c(N)c1Cl)C(=O)OCc1ccccc1 (stereo not drawn) [Compound 29] | 5 (Level 5: the growth inhibition rate is greater than 85%) | 5 (Level 5: the growth inhibition rate is greater than 85%) | 5 (Level 5: the growth inhibition rate is greater than 85%)
5 | COCCC(Oc1nc(F)c(Cl)c(N)c1Cl)C(=O)SCc1ccccc1 (stereo not drawn) [Compound 30] | 5 (Level 5: the growth inhibition rate is greater than 85%) | 5 (Level 5: the growth inhibition rate is greater than 85%) | 5 (Level 5: the growth inhibition rate is greater than 85%)
6 | COC(C)C(Oc1nc(F)c(Cl)c(N)c1Cl)C(=O)OCc1ccccc1 (stereo not drawn) [Compound 31] | 5 (Level 5: the growth inhibition rate is greater than 85%) | 5 (Level 5: the growth inhibition rate is greater than 85%) | 5 (Level 5: the growth inhibition rate is greater than 85%)
7 | C=CC(Oc1nc(F)c(Cl)c(N)c1Cl)C(=O)OCc1ccccc1 (stereo not drawn) [Compound 32] | 5 (Level 5: the growth inhibition rate is greater than 85%) | 5 (Level 5: the growth inhibition rate is greater than 85%) | 5 (Level 5: the growth inhibition rate is greater than 85%)
8 | C#CC(Oc1nc(F)c(Cl)c(N)c1Cl)C(=O)SCc1ccccc1 (stereo not drawn) [Compound 33] | 5 (Level 5: the growth inhibition rate is greater than 85%) | 5 (Level 5: the growth inhibition rate is greater than 85%) | 5 (Level 5: the growth inhibition rate is greater than 85%)
9 | Nc1c(Cl)c(F)nc(OC(F)C(=O)OCc2ccccc2)c1Cl (stereo not drawn) [Compound 34] | 5 (Level 5: the growth inhibition rate is greater than 85%) | 5 (Level 5: the growth inhibition rate is greater than 85%) | 5 (Level 5: the growth inhibition rate is greater than 85%)
10 | Nc1c(Cl)c(F)nc(OC(Cl)C(=O)OCc2ccccc2)c1Cl (stereo not drawn) [Compound 35] | 5 (Level 5: the growth inhibition rate is greater than 85%) | 5 (Level 5: the growth inhibition rate is greater than 85%) | 5 (Level 5: the growth inhibition rate is greater than 85%)
11 | Nc1c(Cl)c(F)nc(OC(Br)C(=O)SCc2ccccc2)c1Cl (stereo not drawn) [Compound 36] | 5 (Level 5: the growth inhibition rate is greater than 85%) | 5 (Level 5: the growth inhibition rate is greater than 85%) | 5 (Level 5: the growth inhibition rate is greater than 85%)
12 | Nc1c(Cl)c(F)nc(OC(CCl)C(=O)OCc2ccccc2)c1Cl (stereo not drawn) [Compound 37] | 5 (Level 5: the growth inhibition rate is greater than 85%) | 5 (Level 5: the growth inhibition rate is greater than 85%) | 5 (Level 5: the growth inhibition rate is greater than 85%)
13 | Nc1c(Cl)c(F)nc(OC(CF)C(=O)SCc2ccccc2)c1Cl (stereo not drawn) [Compound 38] | 5 (Level 5: the growth inhibition rate is greater than 85%) | 5 (Level 5: the growth inhibition rate is greater than 85%) | 5 (Level 5: the growth inhibition rate is greater than 85%)
14 | Nc1c(Cl)c(F)nc(OC(C(=O)OCc2ccccc2)C(F)F)c1Cl (stereo not drawn) [Compound 39] | 5 (Level 5: the growth inhibition rate is greater than 85%) | 5 (Level 5: the growth inhibition rate is greater than 85%) | 5 (Level 5: the growth inhibition rate is greater than 85%)
15 | Nc1c(Cl)c(F)nc(OC(CCCl)C(=O)OCc2ccccc2)c1Cl (stereo not drawn) [Compound 40] | 5 (Level 5: the growth inhibition rate is greater than 85%) | 5 (Level 5: the growth inhibition rate is greater than 85%) | 5 (Level 5: the growth inhibition rate is greater than 85%)
16 | Nc1c(Cl)c(F)nc(OC(CC(F)(F)F)C(=O)SCc2ccccc2)c1Cl (stereo not drawn) [Compound 42] | 5 (Level 5: the growth inhibition rate is greater than 85%) | 5 (Level 5: the growth inhibition rate is greater than 85%) | 5 (Level 5: the growth inhibition rate is greater than 85%)
17 | Nc1c(Cl)c(F)nc(OC(N)C(=O)OCc2ccccc2)c1Cl (stereo not drawn) [Compound 45] | 5 (Level 5: the growth inhibition rate is greater than 85%) | 5 (Level 5: the growth inhibition rate is greater than 85%) | 5 (Level 5: the growth inhibition rate is greater than 85%)
18 | CSC(Oc1nc(F)c(Cl)c(N)c1Cl)C(=O)OCc1ccccc1 (stereo not drawn) [Compound 47] | 5 (Level 5: the growth inhibition rate is greater than 85%) | 5 (Level 5: the growth inhibition rate is greater than 85%) | 5 (Level 5: the growth inhibition rate is greater than 85%)
19 | Nc1c(Cl)c(F)nc(OC(CO)C(=O)OCc2ccccc2)c1Cl (stereo not drawn) [Compound 48] | 5 (Level 5: the growth inhibition rate is greater than 85%) | 5 (Level 5: the growth inhibition rate is greater than 85%) | 5 (Level 5: the growth inhibition rate is greater than 85%)
20 | Nc1c(Cl)c(F)nc(OC(C(=O)OCc2ccccc2)[N+](=O)[O-])c1Cl (stereo not drawn) [Compound 49] | 5 (Level 5: the growth inhibition rate is greater than 85%) | 5 (Level 5: the growth inhibition rate is greater than 85%) | 5 (Level 5: the growth inhibition rate is greater than 85%)
21 | Nc1c(Cl)c(F)nc(OC(C=O)C(=O)OCc2ccccc2)c1Cl (stereo not drawn) [Compound 51] | 5 (Level 5: the growth inhibition rate is greater than 85%) | 5 (Level 5: the growth inhibition rate is greater than 85%) | 5 (Level 5: the growth inhibition rate is greater than 85%)
22 | COC(=O)C(Oc1nc(F)c(Cl)c(N)c1Cl)C(=O)OCc1ccccc1 (stereo not drawn) [Compound 52] | 5 (Level 5: the growth inhibition rate is greater than 85%) | 5 (Level 5: the growth inhibition rate is greater than 85%) | 5 (Level 5: the growth inhibition rate is greater than 85%)
